Assay results from US7897602B2, “Indolinone compounds as kinase inhibitors” (Development Center for Biotechnology, priority 2009, dated 2011).

Assays:
Format in all cases: biochemical
Aurora A kinase = biological target: T1, Aurora A kinase (Homo sapiens, UniProt O14965); assay: Aurora A kinase assay ([γ-33P]ATP, CHOCKtide substrate)
T1 construct: purchased Upstate
T1 sequence (O14965 1-403): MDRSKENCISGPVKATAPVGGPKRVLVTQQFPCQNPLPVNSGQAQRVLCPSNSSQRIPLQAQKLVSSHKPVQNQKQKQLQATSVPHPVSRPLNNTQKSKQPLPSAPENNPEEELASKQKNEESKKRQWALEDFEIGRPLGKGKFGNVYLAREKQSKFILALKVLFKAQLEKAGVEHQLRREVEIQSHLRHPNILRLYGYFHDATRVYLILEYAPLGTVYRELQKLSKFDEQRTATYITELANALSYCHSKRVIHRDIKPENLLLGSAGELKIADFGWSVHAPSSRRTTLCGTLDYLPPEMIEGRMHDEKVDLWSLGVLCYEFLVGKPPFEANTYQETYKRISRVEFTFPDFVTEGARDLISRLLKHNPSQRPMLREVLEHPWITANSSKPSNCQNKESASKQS
Outline: (§1)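 Recombinant Aurora A (1 ng) or Aurora B (2.5 ng) incubated with test compound, CHOCKtide (1 μg) and [γ-33P]ATP/ATP at 10 μM (Aurora A) or 40 μM (Aurora B), 30 min at 33 °C. Stopped with phosphoric acid; filter-bound 33P counted; IC50 = half-maximal inhibition.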

Aurora B kinase = biological target: T2, Aurora B kinase (Homo sapiens, UniProt Q96GD4); assay: Aurora B kinase assay ([γ-33P]ATP, CHOCKtide substrate)
T2 construct: purchased Cell signaling
T2 sequence (Q96GD4 whole entry): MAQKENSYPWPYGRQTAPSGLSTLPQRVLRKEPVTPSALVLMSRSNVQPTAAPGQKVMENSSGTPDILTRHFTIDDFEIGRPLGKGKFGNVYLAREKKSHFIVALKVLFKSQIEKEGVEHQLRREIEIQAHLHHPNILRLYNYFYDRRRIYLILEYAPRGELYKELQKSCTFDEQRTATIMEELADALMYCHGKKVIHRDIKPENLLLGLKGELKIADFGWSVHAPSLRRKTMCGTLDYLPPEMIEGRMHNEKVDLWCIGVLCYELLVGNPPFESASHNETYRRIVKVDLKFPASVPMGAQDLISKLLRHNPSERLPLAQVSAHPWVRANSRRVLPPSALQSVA
Outline: as §1

VEGFR2 kinase = biological target: T3, VEGFR2 kinase (Homo sapiens, UniProt P35968); assay: VEGFR2 kinase assay (33P incorporation into Poly(Glu-Tyr)); conditions: 500 nM test compound; read-out: Inhibition at 500 nM (%) VEGFr-2
T3 construct: recombinant N-terminal 6×His-tagged VEGFR2 kinase domain construct expressed by baculovirus; 6xHis (N); made in house
T3 sequence (P35968 834-1162 limits assumed): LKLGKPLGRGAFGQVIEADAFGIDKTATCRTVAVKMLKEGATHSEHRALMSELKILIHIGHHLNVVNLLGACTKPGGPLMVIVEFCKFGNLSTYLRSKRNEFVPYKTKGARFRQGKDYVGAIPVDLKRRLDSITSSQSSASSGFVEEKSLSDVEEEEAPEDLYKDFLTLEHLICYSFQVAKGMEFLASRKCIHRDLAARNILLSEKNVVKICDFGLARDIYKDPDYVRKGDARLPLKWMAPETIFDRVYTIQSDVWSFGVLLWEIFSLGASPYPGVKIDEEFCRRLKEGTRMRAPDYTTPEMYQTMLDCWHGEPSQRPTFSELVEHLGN
Method: Inhibition of VEGFR2 kinase activity by compounds disclosed herein was quantified by measuring the amount of [^33P] incorporated into the substrate in the presence of a test compound. Specifically, a reaction mixture with a final volume of 25 μL and containing 6.25 ng of VEGFR2 kinase (obtained by purifying recombinant N-terminal 6×His-tagged VEGFR2 kinase domain construct expressed by baculovirus), 5 μg of substrate (Poly (Glu-Tyr, 4:1, Sigma)), kinase reaction buffer (20 mM MOPS pH 7.0, 1 mM EDTA, 5% glycerol, 0.01% Brij-35, 0.1% β-mercaptoethanol, 1 mg/mL BSA, 100 μM ATP, 0.1 μCi per well [^33P]-γ-ATP (2,500-3,000 Ci/mmol), and 500 nM test compound (final concentration of DMSO was 4%) or 4% DMSO alone (as the control sample), was incubated at 30° C. for 30 minutes. The reaction was then stopped by adding 5 μL of 3% phosphoric acid solution. The resultant solution was transferred to and harvested by a filter plate (UniFilter-96 GF/B, PerkinElmer). The filter plate was then washed 20 times with d.d. H2O for 5 min followed by the addition of 30 μL of MicroScint™-20 Cocktail (PerkinElmer). After the plate was sealed, the retained radioactivity on the filter was counted using a TopCount scintillation detector (PerkinElmer). The percentage of inhibition rate of the test compound was calculated by dividing the retained radioactivity of the test sample with the retained radioactivity of the control sample and shown in Table 3.

c-Met kinase = biological target: T4, c-Met kinase (Homo sapiens, UniProt P08581); assay: c-Met kinase assay (33P incorporation into Poly(Glu-Tyr)); conditions: 500 nM test compound
T4 construct: recombinant N-terminal 6×His-tagged c-Met kinase domain construct expressed from baculovirus; 6xHis (N); made in house
T4 sequence (P08581 1078-1345 limits assumed): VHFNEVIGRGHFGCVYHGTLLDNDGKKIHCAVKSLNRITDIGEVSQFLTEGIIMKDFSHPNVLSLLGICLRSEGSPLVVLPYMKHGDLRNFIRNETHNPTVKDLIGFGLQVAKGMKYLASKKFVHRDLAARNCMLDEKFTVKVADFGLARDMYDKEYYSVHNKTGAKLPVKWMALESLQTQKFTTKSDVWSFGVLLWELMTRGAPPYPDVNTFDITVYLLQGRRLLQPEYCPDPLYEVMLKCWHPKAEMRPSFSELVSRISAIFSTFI
Outline: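 Recombinant N-terminal 6×His-tagged c-Met kinase domain (baculovirus-expressed, 5 ng) acted on Poly(Glu-Tyr) 4:1 with 100 μM ATP plus [33P]-γ-ATP in MOPS pH 7.0 buffer, 30 min at 30° C. Compound was at 500 nM. Filter-retained radioactivity was compared with the DMSO control to give percent inhibition.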

IC50 (Aurora A kinase) [nM]	inhibition at 1 µM (Aurora A kinase; 1.0 μM test compound) [%]	IC50 (Aurora B kinase) [µM]	inhibition at 1 µM (Aurora B kinase; 1.0 μM test compound) [%]	inhibition at 0.5 µM (VEGFR2 kinase) [%]	inhibition at 0.5 µM (c-Met kinase) [%]	Aurora A kinase assay Inhibition at 1.0 μM (%) (Aurora A kinase; 1.0 μM test compound, 1 µM)	Aurora B kinase assay Inhibition at 1.0 μM (%) (Aurora B kinase; 1.0 μM test compound, 1 µM)	Inhibition at 500 nM (%) c-Met (c-Met kinase; 0.5 µM) [%]	Structure (SMILES)
1780	32.6	5.92	2.3	79.7	26	–	–	–	CCOC(=O)CCc1c(/C=C2\C(=O)Nc3ccccc32)[nH]c2c1C(=O)CCC2 [DCB-70049, (Z)-3-((3-(3-ethoxy-3-oxopropyl)-4-oxo-4,5,6,7-tetrahydro-1H-indol-2-yl)methylene)indolin-2-one]
209	74.8	–	13	85	14.3	–	–	–	O=C(O)CCc1c(/C=C2\C(=O)Nc3ccccc32)[nH]c2c1C(=O)CCC2 [DCB-70052, (Z)-3-((3-carboxyethyl-4-oxo-4,5,6,7-tetrahydro-1H-indol-2-yl)methylene)indolin-2-one]
1980	–	–	–	85.2	–	38.2	3.5	17.4	CCOC(=O)CCc1c(/C=C2\C(=O)Nc3ccc(F)cc32)[nH]c2c1C(=O)CCC2 [DCB-70053, (Z)-5-fluoro-3-((3-(3-ethoxy-3-oxopropyl)-4-oxo-4,5,6,7-tetrahydro-1H-indol-2-yl)methylene)indolin-2-one]
178	79.8	–	11.6	91.2	21.7	–	–	–	O=C(O)CCc1c(/C=C2\C(=O)Nc3ccc(F)cc32)[nH]c2c1C(=O)CCC2 [DCB-70055, (Z)-5-fluoro-3-((3-carboxyethyl-4-oxo-4,5,6,7-tetrahydro-1H-indol-2-yl)methylene)indolin-2-one]
–	55	–	7.2	89.6	30.9	–	–	–	CCOC(=O)CCc1c(/C=C2\C(=O)Nc3ccc(Br)cc32)[nH]c2c1C(=O)CCC2 [DCB-70056, (Z)-5-bromo-3-((3-(3-ethoxy-3-oxopropyl)-4-oxo-4,5,6,7-tetrahydro-1H-indol-2-yl)methylene)indolin-2-one]
211	89.5	–	6.8	94.9	19.3	–	–	–	O=C(O)CCc1c(/C=C2\C(=O)Nc3ccc(Br)cc32)[nH]c2c1C(=O)CCC2 [DCB-70057, (Z)-5-bromo-3-((3-carboxyethyl-4-oxo-4,5,6,7-tetrahydro-1H-indol-2-yl)methylene)indolin-2-one]
–	17.7	–	-1	46.3	9.7	–	–	–	CCOC(=O)CCc1c(/C=C2\C(=O)Nc3ccc(-c4ccc(O)c(OC)c4)cc32)[nH]c2c1C(=O)CCC2 [DCB-70058, (Z)-5-(4-hydroxyl-3-methoxyphenyl)-3-((3-(3-ethoxy-3-oxopropyl)-4-oxo-4,5,6,7-tetrahydro-1H-indol-2-yl)methylene)indolin-2-one]
357	76.1	–	12.4	70.9	16.3	–	–	–	COc1cc(-c2ccc3c(c2)/C(=C/c2[nH]c4c(c2CCC(=O)O)C(=O)CCC4)C(=O)N3)ccc1O [DCB-70059, (Z)-5-(4-hydroxyl-3-methoxyphenyl)-3-((3-carboxyethyl-4-oxo-4,5,6,7-tetrahydro-1H-indol-2-yl)methylene)indolin-2-one]
–	-7.2	–	-4.1	60.2	34.1	–	–	–	CCOC(=O)CCc1c(/C=C2\C(=O)Nc3ccc([N+](=O)[O-])cc32)[nH]c2c1C(=O)CCC2 [DCB-70062, (Z)-5-nitro-3-((3-(3-ethoxy-3-oxopropyl)-4-oxo-4,5,6,7-tetrahydro-1H-indol-2-yl)methylene)indolin-2-one]
724	56.6	–	3.4	82.7	19.9	–	–	–	O=C(O)CCc1c(/C=C2\C(=O)Nc3ccc([N+](=O)[O-])cc32)[nH]c2c1C(=O)CCC2 [DCB-70063, (Z)-5-nitro-3-((3-carboxyethyl-4-oxo-4,5,6,7-tetrahydro-1H-indol-2-yl)methylene)indolin-2-one]
313	78.6	–	22.2	39	48.1	–	–	–	CCOC(=O)CCc1c(/C=C2\C(=O)Nc3ccc(S(=O)(=O)NC)cc32)[nH]c2c1C(=O)CCC2 [DCB-70064, (Z)-5-(N-methylsulfamoyl)-3-((3-(3-ethoxy-3-oxopropyl)-4-oxo-4,5,6,7-tetrahydro-1H-indol-2-yl)methylene)indolin-2-one]
30.8	97.3	–	25.6	47.9	29.1	–	–	–	CNS(=O)(=O)c1ccc2c(c1)/C(=C/c1[nH]c3c(c1CCC(=O)O)C(=O)CCC3)C(=O)N2 [DCB-70065, (Z)-5-(N-methylsulfamoyl)-3-((3-carboxyethyl-4-oxo-4,5,6,7-tetrahydro-1H-indol-2-yl)methylene)indolin-2-one]
–	40.1	–	25.3	94.3	15.2	–	–	–	CCOC(=O)CCc1c(/C=C2\C(=O)Nc3cc(-c4ccc(O)cc4)ccc32)[nH]c2c1C(=O)CCC2 [DCB-70066, (Z)-6-(4-hydroxyphenyl)-3-((3-(3-ethoxy-3-oxopropyl)-4-oxo-4,5,6,7-tetrahydro-1H-indol-2-yl)methylene)indolin-2-one]
–	5.2	–	-1.3	27.2	17	–	–	–	CCOC(=O)CCc1c(/C=C2\C(=O)Nc3ccc(-c4ccc(OC)c(OC)c4)cc32)[nH]c2c1C(=O)CCC2 [DCB-70067, (Z)-5-(3,4-dimethoxyphenyl)-3-((3-(3-ethoxy-3-oxopropyl)-4-oxo-4,5,6,7-tetrahydro-1H-indol-2-yl)methylene)indolin-2-one]
560	54	–	5.1	48.4	18	–	–	–	COc1ccc(-c2ccc3c(c2)/C(=C/c2[nH]c4c(c2CCC(=O)O)C(=O)CCC4)C(=O)N3)cc1OC [DCB-70068, (Z)-5-(3,4-dimethoxyphenyl)-3-((3-carboxyethyl-4-oxo-4,5,6,7-tetrahydro-1H-indol-2-yl)methylene)indolin-2-one]
–	16.5	–	-2.6	11.4	-38	–	–	–	CCOC(=O)CCc1c(/C=C2\C(=O)Nc3ccc(-c4cc5ccccc5s4)cc32)[nH]c2c1C(=O)CCC2 [DCB-70069, (Z)-5-(benzo[b]thiophen-2-yl)-3-((3-(3-ethoxy-3-oxopropyl)-4-oxo-4,5,6,7-tetrahydro-1H-indol-2-yl)methylene)indolin-2-one]
–	31.4	–	-2.7	45.5	19.7	–	–	–	O=C(O)CCc1c(/C=C2\C(=O)Nc3ccc(-c4cc5ccccc5s4)cc32)[nH]c2c1C(=O)CCC2 [DCB-70070, (Z)-5-(benzo[b]thiophen-2-yl)-3-((3-carboxyethyl-4-oxo-4,5,6,7-tetrahydro-1H-indol-2-yl)methylene)indolin-2-one]
270	82.1	–	11.2	91.8	65.3	–	–	–	O=C(O)CCc1c(/C=C2\C(=O)Nc3ccc(S(=O)(=O)Cc4ccccc4)cc32)[nH]c2c1C(=O)CCC2 [DCB-70071, (Z)-5-benzylsulfonyl-3-((3-carboxyethyl-4-oxo-4,5,6,7-tetrahydro-1H-indol-2-yl)methylene)indolin-2-one]
